# In patent US20100239501A1, “GENE SENSITIVE TO BONE/JOINT DISEASE AND USE THEREOF” (RIKEN, priority 2007, published 2010):
# Key:
# [1] = test system: Normal human knee articular cartilage cells (NHAC-kn); experiment: Inflammatory cytokine gene expression induction by LPA in human articular cartilage cells; assay type: cell-based; conditions: 10 μM LPA, n=4
# Protocol: EDG2 is a GPCR having lysophosphatidic acid (LPA) as a ligand thereof. For LPA, four receptors, including EDG2, have been reported (EDG2, EDG4, EDG7 and GPR23). To analyze the tissue distributions of these four LPA receptors, an expression quantitation analysis by quantitative real-time PCR in various human tissues was performed. On 500 ng of total RNA of each of various human tissues (Human Total RNA Master Panel, Clontech), reverse transcription was performed using Multiscribe reverse transcriptase (Applied biosystems) and a random hexamer, whereby a cDNA was obtained. Quantitation of the LPA receptor genes was performed using QuantiTect STBR Green PCR (Qiagen) on the ABI PRISM 7700 sequence detection system (Applied biosystems) as directed in the documentation attached. The number of copies of each gene was calculated using a working curve. […]
# The inflammatory cytokine expression induction reaction of LPA, which is a ligand of EDG2, in human articular cartilage cells was analyzed. […] Twelve hours after the medium replacement, the cells were stimulated with 10 μM LPA; 0, 2, 4, 8, 12 and 24 hours later, total RNA was extracted using ISOGEN (Nippon Gene), and the amounts expressed of TNFA and IL1B, which are inflammatory cytokine genes, were quantified by a method in accordance with Example 10. […]
# [2] = biological target: EDG2 (Homo sapiens, UniProt Q92633); experiment: Intracellular Ca2+ concentration (FLIPR tetra) in McA-RH7777 cells stably expressing EDG2; assay type: cell-based; design: Dainippon Pharmaceutical Co., Ltd. (cells); host or cells: McA-RH7777; conditions: 0.03 to 10 μM LPA
# Protocol: A forcible expression vector comprising an ORF sequence of human EDG2 [hEDG2-pcDNA3.1(+)] was purchased from UMR cDNA Resource Center. This plasmid was introduced into McA-RH7777 (Dainippon Pharmaceutical Co., Ltd.) using Lipofectamine LTX (Invitrogen), and the cells were cultured in a medium containing Geneticin for 14 to 20 days to acquire cells that stably express EDG2.
# Next, an evaluation was made using FLIPR tetra (Molecular Devices) to confirm that stimulation with LPA raised intracellular Ca concentrations via the EDG2 expressed. That is, these cells were seeded to a 384-well plate, 0.03 to 10 μM LPA (Sigma) was added to each well, and it was confirmed that rises in intracellular Ca^2+ concentration occurred. LPA dose-dependently.
# Chain of EDG2 (Q92633 whole entry): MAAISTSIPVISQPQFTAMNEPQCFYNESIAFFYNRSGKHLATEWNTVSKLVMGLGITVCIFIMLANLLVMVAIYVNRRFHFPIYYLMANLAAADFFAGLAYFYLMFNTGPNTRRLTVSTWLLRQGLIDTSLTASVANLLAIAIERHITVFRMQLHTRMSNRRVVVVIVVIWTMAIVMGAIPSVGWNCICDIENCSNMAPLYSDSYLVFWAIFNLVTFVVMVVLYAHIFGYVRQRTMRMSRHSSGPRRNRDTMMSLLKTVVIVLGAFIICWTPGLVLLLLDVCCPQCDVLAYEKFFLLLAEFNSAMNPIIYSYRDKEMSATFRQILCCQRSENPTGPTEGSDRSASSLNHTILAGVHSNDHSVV
smiles,measurement,setting,value
"CCCCCCCC/C=C\CCCCCCCC(=O)OC[C@@H](O)COP(=O)(O)O [LPA, 1-Oleoyl-sn-Glycero-3-Phosphate]",IL1B gene expression,[1]; 0-24 hours,no expression raising reaction was observed
same,rise in amount expressed of the TNFA gene,"[1]; transiently, 2 hours after addition",about 2 folds
same,rises in intracellular Ca2+ concentration,[2],dose-dependently
